{"source": "patent US5519006A", "about": "“Phosphonated arylethanolamine compounds with anti-hyperglycemic and/or anti-obesity activity” (SmithKline Beecham plc, priority 1992, dated 1996)", "key": {"[1]": {"test_system": "Rat white adipocytes", "assay": "Lipolysis stimulated in rat white adipocytes (glycerol release)", "format": "cell-based", "conditions": "Adipocyte, 0.5 h, 30 minutes", "method": "Rat white adipocytes were prepared by collagenase digestion as described by Rodbell (1964) with the modification of Honnor et al. (1985), in that adenosine (200 nM) was included in the preparation to inhibit basal lipolysis.\nLipolysis stimulated by β-agonists was measured over 30 minutes in medium where the adenosine concentration was controlled; the medium included (-)-N^6 -(2-phenylisopropyl)adenosine (100 nM)+deaminase as decribed by Honnor et al. (1985). The incubation was stopped by addition of trichloracetic acid (0.2 ml of 10% w/v) to 1 ml of cells. Glycerol was measured by the fluorimetric method of Boobis and Maugham (1983)."}, "[2]": {"target": "T1, Rat β1 adrenoceptor (Rattus norvegicus, UniProt P18090)", "T1 construct": "Spontaneously beating right atria were removed; from tissue; host or cells: right atria of female Sprague-Dawley rats", "T1 sequence (P18090 whole entry)": "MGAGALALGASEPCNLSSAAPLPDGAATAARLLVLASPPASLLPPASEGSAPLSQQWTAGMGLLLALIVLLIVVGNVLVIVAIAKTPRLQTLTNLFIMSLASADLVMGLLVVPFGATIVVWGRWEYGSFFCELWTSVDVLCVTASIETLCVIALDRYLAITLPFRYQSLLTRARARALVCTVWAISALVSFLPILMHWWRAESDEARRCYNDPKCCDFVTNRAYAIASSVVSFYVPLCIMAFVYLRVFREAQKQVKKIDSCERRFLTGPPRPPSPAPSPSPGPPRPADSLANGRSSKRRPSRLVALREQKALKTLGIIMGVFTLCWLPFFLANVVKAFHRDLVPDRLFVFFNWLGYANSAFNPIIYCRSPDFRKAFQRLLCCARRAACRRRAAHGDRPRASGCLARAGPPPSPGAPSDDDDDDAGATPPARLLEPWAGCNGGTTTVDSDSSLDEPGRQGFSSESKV", "assay": "β1-Adrenoceptor agonism, increase in rate of spontaneously beating right atria", "format": "cell-based, Rat (female Sprague-Dawley)", "conditions": "in vitro, 37° C., Krebs-Henseleit solution", "method": "(§1) Agonist Activity at Rat β1 and β2 Adrenoceptors In Vitro\nFemale Sprague-Dawley rats (150-250 g) were killed by a blow to the head and exsanguinated. Spontaneously beating right atria were removed by the method of Broadley and Lumley (1977) and mounted on a glass tissue holder. Each tissue was placed in 30 ml organ baths at 37° C. containing Kreb's-Henseleit solution. Each atrium was attached to an isometric transducer by cotton and placed under an initial resting tension of 1 g. Rate recordings from the spontaneous beating atria were obtained from the tension signal using a Lectromed Type 4522 ratemeter. All traces were recorded on a Lectromed M4 chart recorder. β-adrenoceptor agonists were then added to the Krebs medium in a cumulative fashion and the results expressed as a percentage increase in atrial rate.\n(§2) Agonist EC50 (atria) and IC50 (uteri) were calculated as the concentration of agonist producing 50% of their maximum increase in atrial rate or uterine relaxation. Relative intrinsic activity expressed as the maximal responses to test agonists relative to isoprenaline (=1.0) in both atria and uteri."}, "[3]": {"target": "T2, Rat β2 adrenoceptor (Rattus norvegicus, UniProt P10608)", "T2 construct": "Rat uterine horns were removed and bisected longitudinally; from tissue; host or cells: rat uterine horns (uterine strips)", "T2 sequence (P10608 whole entry)": "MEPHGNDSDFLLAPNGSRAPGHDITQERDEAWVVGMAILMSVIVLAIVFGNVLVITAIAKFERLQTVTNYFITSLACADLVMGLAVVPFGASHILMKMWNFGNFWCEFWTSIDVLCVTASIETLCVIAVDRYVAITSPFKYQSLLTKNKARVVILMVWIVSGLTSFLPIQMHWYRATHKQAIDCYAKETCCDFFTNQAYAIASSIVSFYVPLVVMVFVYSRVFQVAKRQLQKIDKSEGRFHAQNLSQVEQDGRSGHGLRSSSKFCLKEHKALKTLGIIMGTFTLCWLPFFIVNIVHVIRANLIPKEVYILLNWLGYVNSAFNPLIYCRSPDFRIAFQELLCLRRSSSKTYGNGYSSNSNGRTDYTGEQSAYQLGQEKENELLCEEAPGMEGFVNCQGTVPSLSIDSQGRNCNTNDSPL", "assay": "β2-Adrenoceptor agonism, inhibition of contraction of K+-pre-contracted uterine strips", "format": "cell-based", "conditions": "pre-contracted with 40 mM K+", "method": "as §1\nRat uterine horns were removed and bisected longitudinally. Each tissue was tied to a glass tissue holder and placed in Krebs-Henseleit solution in a 30 ml organ bath as before. Tissues were placed under a resting tension of 1 g and allowed to equilibrate. Each uterine strip was pre-contracted by the addition of 40 mM K^+ to the bath to produced a steady tonic contraction. β-agonists were then added to the bath in a cumulative manner and results were expressed as percentage inhibition of contraction.\nas §2"}}, "data": [{"smiles": "CCOP(=O)(O)COc1ccc(C[C@@H](C)NC[C@H](O)c2cccc(Cl)c2)cc1", "note": "(relative stereo) [Example 2, (RR,SS)-Sodium Ethyl 4-[2-[2-(3-chlorophenyl)-2-hydroxyethylamino]propyl]phenoxymethylphosphonate]", "values": [{"measurement": "EC50", "setting": "[1]", "result": 0.077, "unit": "µM"}, {"measurement": "Emax", "setting": "[1]; read-out: Intrinsic Activity", "result": 95, "unit": "%"}, {"measurement": "Ki", "setting": "[2]", "result": 37600, "unit": "nM"}, {"measurement": "Ki", "setting": "[3]", "result": 10000, "unit": "nM"}]}]}
